Assay results as given in patent publication US9993497B2, “Use of alginate compositions in preventing or reducing liver damage caused by a hepatotoxic agent” (HADASIT MEDICAL RESEARCH SERVICES AND DEVELOPMENT LTD., priority 2012, dated 2018).

Assays:
[1] = system: paracetamol intoxicated mice; assay: Ki-67 staining of liver tissue (cell proliferation); format: in vivo, mice (C57BL/6); details: 4 mg paracetamol alone
Method: (§1) Briefly, necrosis staining was as follows: sections were first de-paraffinized and then were incubated with rabbit polyclonal IgG. Sections were then incubated with secondary antibody using the MACH 3 Rabbit HRP Polymer Detection and then dehydrated, cleared and mounted in synthetic resin. For color detection, DAB (3,3′-diaminobenzidine) was applied, followed by counterstaining Quantification of necrosis was carried out by the Ariol SL-50 system (Applied Imaging) on microscope slides. Nitrotyrosine and Ki-67 immunostaining staining was performed similarly, using a rabbit polyclonal anti-nitrotyrosine antibody (Abcam) or an anti-Ki-67 antibody (DAKO).

[2] = system: paracetamol intoxicated mice; assay: Nitrotyrosine staining of liver tissue (oxidative stress); format: in vivo, mice (C57BL/6); details: 4 mg paracetamol alone
Method: as §1

SMILES: CC(=O)Nc1ccc(O)cc1 [paracetamol, N-acetyl-p-aminophenol]
- Cell proliferation in the liver (Ki-67 staining) [1]: widespread cell proliferation in the liver
- Nitrotyrosine staining in liver [2]: extensive centrilobular nitrotyrosine staining
